Reference: PubChem BioAssay AID2060901 (Molecular Pharmacology Branch, DTP, NCI, 2025)

System: 422866-222-R5-J1-PDC complex spheroids viability
Experiment: Anticancer human tumor 422866-222-R5-J1-PDC patient-derived pancreatic adenocarcinoma cell line growth inhibition [RAS]
Conditions: for IC50: curve of first compound; for viability, T/C: stronger effect = lower value
Source text: RAS pathway inhibitors in Combinations in Complex Spheroids
A high-throughput screen of multi-cell type tumor spheroids was designed to identify active combinations of RAS pathway inhibitors and targeted small molecules. Complex spheroids include a stromal component modeled by human endothelial cells (HUVEC) and fibroblasts modeled by human mesenchymal stem cells (MSCs). The concentration ranges selected for each drug and investigational agent were based upon clinically achievable concentrations if the clinical Cmax of the agent was known.
Compounds. The drugs and investigational agents: abemaciclib (NSC768073), cobimetinib (NSC768068), divarasib (GDC6063, NSC841802), docetaxel (NSC628503), GDC-1971 (RLY-1971, NSC841576), gemcitabine (NSC613327), inavolisib (NSC800729), ipatasertib (NSC767898), KB-0742 (NSC834161), MRTX-1133 (NSC836407), osimertinib (NSC779217), RMC-4630 (NSC839698), RMC-6236 (NSC851965), RMC-6291 (NSC852671), Ro-3306 (NSC812927), sapanisertib (NSC764658), SN-38 (NSC673596), staurosporine (NSC755774), SY5609 (NSC837396), and tovorafenib (DAY101, NSC766906), were obtained from the National Cancer Institute (NCI) Developmental Therapeutics Program Chemical Repository. The FDA-approved anticancer drug set is available from the NCI Developmental Therapeutics Program. […] The stock solutions were prepared in dimethyl sulfoxide (DMSO, Sigma-Aldrich, St. Louis, MO, cat. D2650) at 800-fold the tested concentration and stored at -70 degrees C prior to their use. All drugs and investigational agents were tested over a range starting from a high concentration at or near the clinical Cmax and decreasing in half-log increments. If the clinical Cmax for an agent had not been determined, the highest concentration tested was 10 microM.
Cell Culture. All cells were maintained in an incubator at 37 degrees C and 5% CO2 with 95% humidity. The PDC lines were cultured according to standard operating procedures established by the NCI PDMR. All PDCs were thawed and cultured in Matrigel-coated flasks prepared with a working solution of 1X Ham's F-12 nutrient mix, without supplementation (Invitrogen, Waltham, MA, cat. 11765054), 100 U/mL penicillin-streptomycin (Invitrogen, cat. 15140122), and 2.5% Matrigel (Corning Inc., Corning, NY, cat. 354248) for the first three passages. The 362531-283-R-J2-PDC and 782815-120-R-J1-PDC lines were cultured in 6C/Colon 1B media, which includes advanced DMEM/F-12 (Thermo Fisher Scientific, cat. 12634028), 10 mM HEPES (Thermo Fisher Scientific, cat. 15630080), 1X GlutaMAX supplement (Thermo Fisher Scientific, cat. 35050061), 0.1 mg/mL primocin (InvivoGen, San Diego, CA, cat. ant-pm-2), 10% defined fetal bovine serum, heat inactivated (HyClone Laboratories Inc., Logan, UT, cat. SH30070.03HI), 50% L-WRN conditioned media (ATCC, cat. CRL-3276), 1.25 mM N-Acetyl-L-cysteine (Sigma-Aldrich, cat. A9165), 10 mM nicotinamide (Sigma-Aldrich, cat. N0636), 1X B-27 supplement (Thermo Fisher Scientific, cat. 17504044), 1X N-2 supplement (Thermo Fisher Scientific, cat. 17502048), 50 ng/mL human EGF (Thermo Fisher Scientific, cat. PHG0311), and 10 microM Y-27632 dihydrochloride (Tocris Bioscience, cat. 1254). The K12877-001-R-J1-PDC line was cultured in 6I media, which includes all 6C/Colon 1B media plus 10 ng/mL human FGF-10 (PeproTech, cat. 100-26), 1 ng/mL human FGF-2 (PeproTech, cat. 100-18B), 1 µM prostaglandin E2 (Tocris Bioscience, cat. 2296), […] hydrocortisone (Sigma-Aldrich, cat. H4001), and […] bovine insulin (Sigma-Aldrich, cat. I6634). The K86415-001-R-J1-PDC line was cultured in 6D media, which includes all 6C/Colon 1B media components minus the L-WRN conditioned media. The 485176-168-R4-J1-PDC was cultured in PANC media, which includes all 6C/Colon 1B media plus 100 ng/mL human FGF-10 (PeproTech, cat. 100-26), 500 nM SB-431542 (Selleckchem, cat. S1067), and 10 nM gastrin (Tocris Bioscience, cat. 3006). […]
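Note: spheroids exposed to compounds for 7 days.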
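Throughout, for viability, T/C: 100% = DMSO vehicle control viability.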

Which results are given for `CC(C)NCC(C(=O)N1CCN(c2ncnc3c2C(C)CC3O)CC1)c1ccc(Cl)cc1` (configuration not stated) + C#Cc1c(F)ccc2cc(O)cc(-c3ncc4c(N5CC6CCC(C5)N6)nc(OCC56CCCN5CC(F)C6)nc4c3F)c12?
IC50 (second compound 0.0316 µM): > 10 µM; IC50 (second compound 0.1 µM): > 10 µM; IC50 (second compound 0.316 µM): > 10 µM; IC50 (second compound 1 µM): < 0.0316 µM; IC50 (second compound 3.16 µM): < 0.0316 µM; IC50 (second compound 10 µM): < 0.0316 µM; viability, T/C (second compound 0.0316 µM, first compound 0.0316 µM): 87.4%; viability, T/C (second compound 0.0316 µM, first compound 0.1 µM): 79%; viability, T/C (second compound 0.0316 µM, first compound 0.316 µM): 88%; viability, T/C (second compound 0.0316 µM, first compound 1 µM): 100%; viability, T/C (second compound 0.0316 µM, first compound 3.16 µM): 103%; viability, T/C (second compound 0.0316 µM, first compound 10 µM): 121%; viability, T/C (second compound 0.1 µM, first compound 0.0316 µM): 86.9%; viability, T/C (second compound 0.1 µM, first compound 0.1 µM): 64.4%; viability, T/C (second compound 0.1 µM, first compound 0.316 µM): 78.3%; viability, T/C (second compound 0.1 µM, first compound 1 µM): 74.7%; viability, T/C (second compound 0.1 µM, first compound 3.16 µM): 94.2%; viability, T/C (second compound 0.1 µM, first compound 10 µM): 109%; viability, T/C (second compound 0.316 µM, first compound 0.0316 µM): 60.3%; viability, T/C (second compound 0.316 µM, first compound 0.1 µM): 46.1%; viability, T/C (second compound 0.316 µM, first compound 0.316 µM): 58.5%; viability, T/C (second compound 0.316 µM, first compound 1 µM): 69.9%; viability, T/C (second compound 0.316 µM, first compound 3.16 µM): 81.8%; viability, T/C (second compound 0.316 µM, first compound 10 µM): 85.2%; viability, T/C (second compound 1 µM, first compound 0.0316 µM): 39.9%; viability, T/C (second compound 1 µM, first compound 0.1 µM): 35.3%; viability, T/C (second compound 1 µM, first compound 0.316 µM): 38.9%; viability, T/C (second compound 1 µM, first compound 1 µM): 48.6%; viability, T/C (second compound 1 µM, first compound 3.16 µM): 66.5%; viability, T/C (second compound 1 µM, first compound 10 µM): 58.9%; viability, T/C (second compound 3.16 µM, first compound 0.0316 µM): 25.6%; viability, T/C (second compound 3.16 µM, first compound 0.1 µM): 24.3%; viability, T/C (second compound 3.16 µM, first compound 0.316 µM): 19.6%; viability, T/C (second compound 3.16 µM, first compound 1 µM): 29.4%; viability, T/C (second compound 3.16 µM, first compound 3.16 µM): 38.4%; viability, T/C (second compound 3.16 µM, first compound 10 µM): 40.9%; viability, T/C (second compound 10 µM, first compound 0.0316 µM): 17.3%; viability, T/C (second compound 10 µM, first compound 0.1 µM): 19%; viability, T/C (second compound 10 µM, first compound 0.316 µM): 14.6%; viability, T/C (second compound 10 µM, first compound 1 µM): 12%; viability, T/C (second compound 10 µM, first compound 3.16 µM): 18.8%; viability, T/C (second compound 10 µM, first compound 10 µM): 18.8%
